Patent US5972899A, “Apoptosis induced by Shigella IpaB” (New York University, priority 1996, dated 1999)

Test system: J774 cells infected with S. flexneri M90T
Test: LDH release cytotoxicity assay, J774 cells infected with S. flexneri M90T
Type: cell-based, murine
Protocol: In the studies the results of which are shown in FIG. 5, 2×10^4 J774 or peritoneal macrophage cells were seeded onto 96-well plates 18 hours before infection with M90T at a multiplicity of infection of 25 bacteria per cell (Clerc, P. L. et al., supra). Two hours after infection, supernatants of the infected macrophages were assayed for LDH using the Cytotox96® kit (Promega) according to the manufacture's instructions. The percent cytotoxicity was calculated as: [formula] where spontaneous release is the amount of LDH activity in supernatants of cells not infected and total release is the LDH activity in macrophage lysates. ICE inhibitor was added 1 h before infection at a concentration of 25 μg/ml.

**Q.** With CC(=O)N[C@@H](Cc1ccc(O)cc1)C(=O)N[C@H](C(=O)N[C@@H](C)C(=O)N[C@H](C=O)CC(=O)O)C(C)C [Ac-YVAD-CHO] as the compound, how does the inhibition at 25 µg/mL (Mus musculus, ICE inhibitor 25 μg/ml added 1 h before infection, M90T at 25 bacteria per cell, LDH release 2 h after infection, read-out: inhibition of S. flexneri-induced cell death) read?
**A.** The inhibition at 25 µg/mL was 81.5%.

**Q.** And the “reversibility of the inhibition of cell death” value (inhibitor washed away (FIG. 5))?
**A.** Its value is “reversed by washing away the inhibitor”.
